Data as given in patent US11319299B2, “Substituted carboxamides as inhibitors of WDR5 protein-protein binding” (PROPELLON THERAPEUTICS INC., priority 2016, dated 2022).

target: WDR5 (Homo sapiens (Human), UniProt P61964); test: Surface Plasmon Resonance (SPR) assay, KD and residence time; assay type: binding; conditions: surface plasmon resonance (SPR); read-out: WDR5 binding affinity (KD)

**Q.** With `CNC(=O)c1cc(-c2cc(NC(=O)c3c[nH]c(=O)cc3C(F)(F)F)c(N3C[C@@H](C)N(C)[C@@H](C)C3)cc2F)ccc1F` [Example 604, N-[4-fluoro-5-[4-fluoro-3-(methylcarbamoyl)phenyl]-2-[(3R,5S)-3,4,5-trimethylpiperazin-1-yl]phenyl]-6-oxo-4-(trifluoromethyl)-1H-pyridine-3-carboxamide] as the compound, how does the Kd read?
**A.** Its Kd is 1.71 nM.

**Q.** Which Kd does the source give for `CNC(=O)c1ccc(-c2cc(NC(=O)c3c[nH]c(=O)cc3C(F)F)c(N3C[C@@H](C)N(C)[C@@H](C)C3)cc2F)cc1F` [Example 605, 4-(difluoromethyl)-N-[4-fluoro-5-[3-fluoro-4-(methylcarbamoyl)phenyl]-2-[(3R,5S)-3,4,5-trimethylpiperazin-1-yl]phenyl]-6-oxo-1H-pyridine-3-carboxamide] here?
**A.** The Kd was 0.6 nM.

**Q.** With `CNC(=O)c1cc(-c2cc(NC(=O)c3c[nH]c(=O)cc3C(F)F)c(N3C[C@@H](C)N(C)[C@@H](C)C3)cc2F)ccc1F` [Example 606, 4-(difluoromethyl)-N-[4-fluoro-5-[4-fluoro-3-(methylcarbamoyl)phenyl]-2-[(3R,5S)-3,4,5-trimethylpiperazin-1-yl]phenyl]-6-oxo-1H-pyridine-3-carboxamide] as the compound, how does the Kd read?
**A.** The Kd was 1.86 nM.

**Q.** For `C[C@@H]1CN(c2cc(F)c(C3=CCN(C(=O)N4CCCC4)C3)cc2NC(=O)c2c[nH]c(=O)cc2C(F)F)C[C@H](C)N1C` [Example 612, 4-(Difluoromethyl)-N-(4-fluoro-5-(1-(pyrrolidine-1-carbonyl)-2,5-dihydro-1H-pyrrol-3-yl)-2-((3S,5R)-3,4,5-trimethylpiperazin-1-yl)phenyl)-6-oxo-1,6-dihydropyridine-3-carboxamide], which Kd is on record?
**A.** The Kd was 1.94 nM.

**Q.** For `C[C@@H]1CN(c2cc(F)c(C3=CCCN(c4ncc(C#N)s4)C3)cc2NC(=O)c2c[nH]c(=O)cc2C(F)(F)F)C[C@H](C)N1C` [Example 615, N-[5-[1-(5-cyano-1,3-thiazol-2-yl)-3,6-dihydro-2H-pyridin-5-yl]-4-fluoro-2-[(3R,5S)-3,4,5-trimethylpiperazin-1-yl]phenyl]-6-oxo-4-(trifluoromethyl)-1H-pyridine-3-carboxamide], which Kd is on record?
**A.** Its Kd is 0.375 nM.

**Q.** `C[C@@H]1CN(c2cc(F)c(-c3csc(N4CCOCC4)n3)cc2NC(=O)c2c[nH]c(=O)cc2C(F)(F)F)C[C@H](C)N1C` [Example 616, N-[4-fluoro-5-(2-morpholin-4-yl-1,3-thiazol-4-yl)-2-[(3R,5S)-3,4,5-trimethylpiperazin-1-yl]phenyl]-6-oxo-4-(trifluoromethyl)-1H-pyridine-3-carboxamide] was tested. Which Kd did it give?
**A.** Its Kd is 0.748 nM.

**Q.** Which Kd does the source give for `C[C@@H]1CN(c2cc(F)c(-c3cnc(N4CCOCC4)s3)cc2NC(=O)c2c[nH]c(=O)cc2C(F)(F)F)C[C@H](C)N1C` [Example 619, N-[4-fluoro-5-(2-morpholin-4-yl-1,3-thiazol-5-yl)-2-[(3R,5S)-3,4,5-trimethylpiperazin-1-yl]phenyl]-6-oxo-4-(trifluoromethyl)-1H-pyridine-3-carboxamide] here?
**A.** The Kd was 0.948 nM.

**Q.** How did the Kd turn out when `C[C@@H]1CN(c2cc(F)c(-c3csc(N4CCOCC4)n3)cc2NC(=O)c2cn(C)c(=O)cc2C(F)F)C[C@H](C)N1C` [Example 622, 4-(difluoromethyl)-N-[4-fluoro-5-(2-morpholin-4-yl-1,3-thiazol-4-yl)-2-[(3R,5S)-3,4,5-trimethylpiperazin-1-yl]phenyl]-1-methyl-6-oxopyridine-3-carboxamide] was run?
**A.** The Kd was 5.15 nM.

**Q.** For `C[C@@H]1CN(c2cc(F)c(-c3cnc(N4CCOCC4)s3)cc2NC(=O)c2cn(C)c(=O)cc2C(F)F)C[C@H](C)N1C` [Example 623, 4-(difluoromethyl)-N-[4-fluoro-5-(2-morpholin-4-yl-1,3-thiazol-5-yl)-2-[(3R,5S)-3,4,5-trimethylpiperazin-1-yl]phenyl]-1-methyl-6-oxopyridine-3-carboxamide], which Kd is on record?
**A.** Its Kd is 5.57 nM.

**Q.** Which Kd does the source give for `C[C@@H]1CN(c2cc(F)c(-c3cc(C(=O)NC(C)(C)CC(C)(C)C)c(F)cc3F)cc2NC(=O)c2c[nH]c(=O)cc2C(F)(F)F)C[C@H](C)N1C` [Example 626, N-[5-[2,4-difluoro-5-(2,4,4-trimethylpentan-2-ylcarbamoyl)phenyl]-4-fluoro-2-[(3R,5S)-3,4,5-trimethylpiperazin-1-yl]phenyl]-6-oxo-4-(trifluoromethyl)-1H-pyridine-3-carboxamide] here?
**A.** Its Kd is 5.24 nM.

**Q.** Which Kd does the source give for `C[C@@H]1CN(c2cc(F)c(-c3cc(C(=O)NC(C)(C)CC(C)(C)C)c(F)cc3F)cc2NC(=O)c2c[nH]c(=O)cc2C(F)F)C[C@H](C)N1C` [Example 627, 4-(difluoromethyl)-N-[5-[2,4-difluoro-5-(2,4,4-trimethylpentan-2-ylcarbamoyl)phenyl]-4-fluoro-2-[(3R,5S)-3,4,5-trimethylpiperazin-1-yl]phenyl]-6-oxo-1H-pyridine-3-carboxamide] here?
**A.** Its Kd is 23.3 nM.

**Q.** `C[C@H]1CN(c2cc(F)c(C3=CCN(C(=O)N4CCCC4)C3)cc2NC(=O)c2c[nH]c(=O)cc2C(F)F)CCN1C` [Example 629, (S)-4-(Sifluoromethyl)-N-(2-(3,4-dimethylpiperazin-1-yl)-4-fluoro-5-(1-(pyrrolidine-1-carbonyl)-2,5-dihydro-1H-pyrrol-3-yl)phenyl)-6-oxo-1,6-dihydropyridine-3-carboxamide] was tested. Which Kd did it give?
**A.** The Kd was 2.22 nM.

**Q.** How did the Kd turn out when `C[C@@H]1CN(c2cc(F)c(C3=CCN(C(=O)OC4(C)CCC4)C3)cc2NC(=O)c2c[nH]c(=O)cc2C(F)F)C[C@H](C)N1C` [Example 630, 1-Methylcyclobutyl 3-(5-(4-(difluoromethyl)-6-oxo-1,6-dihydropyridine-3-carboxamido)-2-fluoro-4-((3S,5R)-3,4,5-trimethylpiperazin-1-yl)phenyl)-2,5-dihydro-1H-pyrrole-1-carboxylate] was run?
**A.** Its Kd is 1.98 nM.

**Q.** Which Kd does the source give for `C[C@H]1CN(c2cc(F)c(C3=CCN(C(=O)OC4(C)CCC4)C3)cc2NC(=O)c2c[nH]c(=O)cc2C(F)F)CCN1C` [Example 631, 1-Methylcyclobutyl (S)-3-(5-(4-(difluoromethyl)-6-oxo-1,6-dihydropyridine-3-carboxamido)-4-(3,4-dimethylpiperazin-1-yl)-2-fluorophenyl)-2,5-dihydro-1H-pyrrole-1-carboxylate] here?
**A.** Its Kd is 2.65 nM.

**Q.** For `C[C@@H]1CN(c2cc(F)c(-c3cc(C(N)=O)c(F)cc3F)cc2NC(=O)c2c[nH]c(=O)cc2C(F)(F)F)C[C@H](C)N1C` [Example 632, N-[5-(5-carbamoyl-2,4-difluorophenyl)-4-fluoro-2-[(3R,5S)-3,4,5-trimethylpiperazin-1-yl]phenyl]-6-oxo-4-(trifluoromethyl)-1H-pyridine-3-carboxamide], which Kd is on record?
**A.** Its Kd is 11.4 nM.

**Q.** Which Kd does the source give for `C[C@@H]1CN(c2cc(F)c(-c3cc(C(N)=O)c(F)cc3F)cc2NC(=O)c2c[nH]c(=O)cc2C(F)F)C[C@H](C)N1C` [Example 633, N-[5-(5-carbamoyl-2,4-difluorophenyl)-4-fluoro-2-[(3R,5S)-3,4,5-trimethylpiperazin-1-yl]phenyl]-4-(difluoromethyl)-6-oxo-1H-pyridine-3-carboxamide] here?
**A.** Its Kd is 11.9 nM.

**Q.** How did the Kd turn out when `C[C@@H]1CN(c2cc(F)c(-c3cc(C(N)=O)c(F)cc3F)cc2NC(=O)c2ccc(F)cc2C(F)(F)F)C[C@H](C)N1C` [Example 634, 2,4-difluoro-5-[2-fluoro-5-[[4-fluoro-2-(trifluoromethyl)benzoyl]amino]-4-[(3R,5S)-3,4,5-trimethylpiperazin-1-yl]phenyl]benzamide] was run?
**A.** The Kd was 69.5 nM.

**Q.** How did the Kd turn out when `C[C@@H]1CN(c2cc(F)c(-c3cnc(N4CCC(C)(O)CC4)nc3)cc2NC(=O)c2ccc(F)cc2C(F)(F)F)C[C@H](C)N1C` [Example 636, 4-Fluoro-N-[4-fluoro-5-[2-(4-hydroxy-4-methylpiperidin-1-yl)pyrimidin-5-yl]-2-[(3R,5S)-3,4,5-trimethylpiperazin-1-yl]phenyl]-2-(trifluoromethyl)benzamide] was run?
**A.** Its Kd is 1.42 nM.

**Q.** With `C[C@@H]1CN(c2cc(F)c(C3=CCN(C(=O)OC4CC(F)(F)C4)C3)cc2NC(=O)c2c[nH]c(=O)cc2C(F)F)C[C@H](C)N1C` [Example 637, 3,3-Difluorocyclobutyl 3-(5-(4-(difluoromethyl)-6-oxo-1,6-dihydropyridine-3-carboxamido)-2-fluoro-4-((3S,5R)-3,4,5-trimethylpiperazin-1-yl)phenyl)-2,5-dihydro-1H-pyrrole-1-carboxylate] as the compound, how does the Kd read?
**A.** The Kd was 2.26 nM.

**Q.** With `C[C@H]1CN(c2cc(F)c(C3=CCN(C(=O)OC4CC(F)(F)C4)C3)cc2NC(=O)c2c[nH]c(=O)cc2C(F)F)CCN1C` [Example 638, 3,3-Difluorocyclobutyl (S)-3-(5-(4-(difluoromethyl)-6-oxo-1,6-dihydropyridine-3-carboxamido)-4-(3,4-dimethylpiperazin-1-yl)-2-fluorophenyl)-2,5-dihydro-1H-pyrrole-1-carboxylate] as the compound, how does the Kd read?
**A.** The Kd was 2.27 nM.

**Q.** For `C[C@H]1CN(c2cc(F)c(C3=CCN(c4cnc(C#N)nc4)CC3)cc2NC(=O)c2c[nH]c(=O)cc2C(F)F)CCN1C` [Example 639, (S)—N-(5-(1-(2-cyanopyrimidin-5-yl)-1,2,3,6-tetrahydropyridin-4-yl)-2-(3,4-dimethylpiperazin-1-yl)-4-fluorophenyl)-4-(difluoromethyl)-6-oxo-1,6-dihydropyridine-3-carboxamide], which Kd is on record?
**A.** Its Kd is 4.97 nM.

**Q.** For `C[C@@H]1CN(c2ncc(-c3cc(NC(=O)c4cn(C)c(=O)cc4C(F)(F)F)c(N4C[C@@H](C)N(C)[C@@H](C)C4)cc3F)cn2)CCO1` [Example 640, N-[4-fluoro-5-[2-[(2R)-2-methylmorpholin-4-yl]pyrimidin-5-yl]-2-[(3R,5S)-3,4,5-trimethylpiperazin-1-yl]phenyl]-1-methyl-6-oxo-4-(trifluoromethyl)pyridine-3-carboxamide], which Kd is on record?
**A.** Its Kd is 1.74 nM.

**Q.** How did the Kd turn out when `C[C@@H]1CN(c2cc(F)c(-c3cnc(N4CCC(C)(O)CC4)nc3)cc2NC(=O)c2cn(C)c(=O)cc2C(F)(F)F)C[C@H](C)N1C` [Example 641, N-[4-fluoro-5-[2-(4-hydroxy-4-methylpiperidin-1-yl)pyrimidin-5-yl]-2-[(3R,5S)-3,4,5-trimethylpiperazin-1-yl]phenyl]-1-methyl-6-oxo-4-(trifluoromethyl)pyridine-3-carboxamide] was run?
**A.** The Kd was 1.92 nM.

**Q.** With `C[C@@H]1CN(c2cc(F)c(C3=CCCN(c4nc(C#N)cs4)C3)cc2NC(=O)c2c[nH]c(=O)cc2C(F)(F)F)C[C@H](C)N1C` [Example 642, N-[5-[1-(4-cyano-1,3-thiazol-2-yl)-3,6-dihydro-2H-pyridin-5-yl]-4-fluoro-2-[(3R,5S)-3,4,5-trimethylpiperazin-1-yl]phenyl]-6-oxo-4-(trifluoromethyl)-1H-pyridine-3-carboxamide] as the compound, how does the Kd read?
**A.** Its Kd is 1.3 nM.
